{"source": "patent US9457018B2", "about": "“Method for combating adverse effects arising from antipsychotic treatment” (Saniona A/S, priority 2008, dated 2016)", "assay": "Olanzapine-induced weight gain in a rat model of antipsychotic drug induced obesity (three weeks study)", "type": "in vivo, Female Sprague-Dawley (SPRD) rats", "conditions": "tesofensine 2.0 mg/kg s.c. co-treatment with olanzapine 2.0 mg/kg p.o. from day 15, for 7 days, female SPRD rats", "description": "Female Sprague-Dawley (SPRD) rats were placed on 10% fat kcal futter. The rats were tagged subcutaneously with a microship in the neck and placed in an automatized food intake monitoring system. […] Co-administration of vehicle or tesofensine continued for 7 days in total. Body weight and food intake was measured on a daily basis, and body weight gain and cumulative food intake was calculated. Data were evaluated using a two-way ANOVA with Bonferroni's post-hoc test (daily body weight gain and food intake) or a one-way ANOVA with Tukey's post-hoc test.", "data": [{"smiles": "CCOC[C@@H]1[C@@H](c2ccc(Cl)c(Cl)c2)C[C@@H]2CC[C@H]1N2C", "note": "[tesofensine, (1R,2R,3S,5S)-3-(3,4-dichlorophenyl)-2-(ethoxymethyl)-8-methyl-8-azabicyclo[3.2.1]octane]", "values": [{"measurement": "effect on hypophagic response to olanzapine (food intake)", "result": "completely prevented"}, {"measurement": "effect on olanzapine-induced body weight gain", "result": "completely prevented"}, {"measurement": "effect on hypophagic response to olanzapine (food intake)", "setting": "listed as Tesofensine", "result": "prevents"}, {"measurement": "effect on olanzapine-induced body weight gain", "setting": "listed as Tesofensine", "result": "prevents"}]}]}
